In assay [1] the test system is A431 cells. Put plainly: MEIRS measurement of the response of A431 cells to epidermal growth factor, PCA of reflectance spectra. Format: cell-based. Conditions: 40 nM EGF injected at t=240 min, time resolution 1 min. Here is the method: (§1) The following method is used for monitoring a drug's effect of the cells. The method can be implemented using the same or similar detection unit 100, detection device 300, and detection system 10, as described above and shown in FIGS. 1 and 2-12. First, the metasurface 102 is assembled with the microfluidic chamber 302, and the cells are seeded on the metasurface 102 in culture media. The cells are then incubated until they are well-adhered on the metasurface 102. The metasurface 102 (with cells) is then transferred to a FTIR microscope 20 for continuous collection of IR spectra. […]
Referring briefly to FIG. 25, there are shown graphs of the resulting PCA scores/loadings obtained from A431 cells with the addition of epidermal growth factor (EGF). […] Specifically, 40 nM EGF was injected to the microfluidic measurement chamber 302 at t=240 min., while continuously monitored with time resolution of Δt=1 min. The measured reflectance spectra were analyzed using PCA. […] Although the biological interpretation of such signal is still not clear, it is hypothesized that the measured response corresponds to at least two processes in the cell, likely related to the cells' cytoskeletal reorganization in response of EGF.

Assay [2] relates to A431 cells. Put plainly: MEIRS monitoring of trypsinization (detachment of adherent cells from the metasurface), PCA of reflection spectra. Format: cell-based. Conditions: 0.025% trypsin at t=66 min, between t=66 min and t=100 min, time resolution 1 min. Here is the method: as §1, with “spectra. Background spectra of the cells are collected for some time, before the drug to be tested is introduced to the cells via a microfluidic pump (such as a syringe pump 20 like that shown in FIG. 12).” for “spectra.”
Referring briefly to FIG. 24, there are shown contrast microscopy images of A431 cells on the metasurface 102 and graphs of the resulting PCA scores/loadings obtained from their spectra. The most robust adhesion-related effects, such as trypsinization (i.e., the detachment of adherent cells from the metasurface 102 by application of trypsin, a proteolytic enzyme that breaks down adhesion proteins), can be easily detected using MEIRS. […] Reflection spectra were analyzed using principal components analysis (PCA). […]

With “epidermal growth factor (NSDSECPLSHDGYCLHDGVCMYIEALDKYACNCVVGYIGERCQYRDLKWWELR; Epidermal growth factor; UniProt P01133 971-1023, looked up) [EGF, epidermal growth factor (EGF)]”, in the assay with A431 cells [1], the “PC1 score response to EGF” value is reported as “permanent change to the cell” and the “time for PC2 score to recover to the baseline level before the EGF injection” value is listed as “about 200 min”.

trypsin: the “time evolution of the PC1 score (cell detachment from the metasurface)” value in the assay on A431 cells [2] was “rapid detachment of the cells”.

These data come from patent publication US12292380B2, “Integrated microfluidic device for capture and spectroscopic characterization of live cells under various treatment conditions” (CORNELL UNIVERSITY, priority 2018, dated 2025).
